Assay results from ChEMBL document CHEMBL6121036, “Evaluation of Cereblon-Directing Warheads for the Development of Orally Bioavailable PROTACs” (J Med Chem, 2025).
Values after ≈ are worked out from the molar mass of the structure shown. Values belong to the compound of their own block, whether it stands above or below them. Active and inactive are the calls of the source. The rule behind the calls is not given here.

Assays:
[1] = Permeability in human MV4-11 cells assessed as cell availability index relative to lenalidomide; assay type: ADME, cell-based
[2] = Chemical stability in human MV4-11 cell culture media assessed as half life; assay type: physicochemical
[3] = Chemical stability in human HD-MB03 cell culture media assessed as half life; assay type: physicochemical
[4] = target: T1, Protein cereblon/Bromodomain-containing protein 4 (Homo sapiens, UniProt O60885+Q96SW2); test: PROTAC activity at CRBN/Hibit-tagged BRD4 (unknown origin) expressed in HEK293 cells co-expressing LgBiT assessed as degradation of BRD4 incubated for 24 hrs by […] glo-max assay; assay type: cell-based
[5] = target: T1, Protein cereblon/Bromodomain-containing protein 4; test: PROTAC activity at CRBN/Hibit-tagged BRD4 (unknown origin) expressed in HEK293 cells co-expressing LgBiT assessed as degradation of BRD4 incubated for 24 hrs by […] glo-max assay relative to control; assay type: cell-based
[6] = target: T1, Protein cereblon/Bromodomain-containing protein 4; test: PROTAC activity at CRBN/Hibit-tagged BRD4 (unknown origin) expressed in HEK293 cells co-expressing LgBiT assessed as degradation rate incubated for 24 hrs by […] glo-max assay; assay type: cell-based
MV4-11 [7] = test: Cytotoxicity against human MV4-11 cells assessed as reduction in cell viability incubated for 72 hrs by cell-titer glo assay; assay type: functional, cell-based; settings: MV4-11, 72 h
HD-MB03 = test: Cytotoxicity against human HD-MB03 cells assessed as reduction in cell viability incubated for 72 hrs by cell-titer glo assay; assay type: functional, cell-based; settings: HD-MB03, 72 h
[8] = Kinetic aqueous solubility of the compound at pH 7.4; assay type: physicochemical; settings: read-out: Kinetic_solubility
[9] = Metabolic stability in mouse liver microsomes assessed as half life; assay type: ADME, Microsome; settings: liver microsomes
[10] = target: T2, Protein cereblon/Bromodomain-containing protein 4/DNA damage-binding protein 1 (Homo sapiens) (UniProt O60885+Q96SW2+Q16531); test: Binding affinity to his-tagged CRBN/DDB1/GST-tagged BRD4 (49 to 170 residues)(unknown origin) assessed as ternary complex formation (AUC) incubated for 1 hr by luminescence based Alphascreen assay; assay type: protein assay
HEK293 = test: Cytotoxicity against HEK293 cells expressing LgBiT fused HiBiT-BRD2 measured after 24 hrs by cell titer-glo assay; assay type: toxicity, cell-based; settings: human, hek293, 24 h
[11] = target: T2, Protein cereblon/Bromodomain-containing protein 4/DNA damage-binding protein 1 (Homo sapiens); test: Binding affinity to his-tagged CRBN/DDB1/GST-tagged BRD4 (49 to 170 residues)(unknown origin) assessed as ternary complex formation by measuring AUC incubated for 1 hr by luminescence based Alphascreen assay; assay type: protein assay
[12] = Clearance in female CD1 mouse at 3 mg/kg, iv measured upto 24 hrs by LC-MS/MS analysis; assay type: ADME, organism-based; settings: in vivo
[13] = Terminal elimination half life in female CD1 mouse at 3 mg/kg, iv measured upto 24 hrs by LC-MS/MS analysis; assay type: ADME, organism-based; settings: in vivo, read-out: beta t1/2 (converted)
[14] = AUC in female CD1 mouse at 3 mg/kg, iv measured upto 24 hrs by LC-MS/MS analysis; assay type: ADME, organism-based; settings: in vivo
[15] = Volume of distribution in female CD1 mouse at 3 mg/kg, iv measured upto 24 hrs by LC-MS/MS analysis; assay type: ADME, organism-based; settings: in vivo
[16] = Cmax in female CD1 mouse at 10 mg/kg, po measured upto 24 hrs by LC-MS/MS analysis; assay type: ADME, organism-based; settings: in vivo
[17] = Oral bioavailability in female CD1 mouse at 10 mg/kg measured upto 24 hrs by LC-MS/MS analysis; assay type: ADME, organism-based; settings: in vivo
[18] = target: T1, Protein cereblon/Bromodomain-containing protein 4; test: PROTAC activity at CRBN/BRD4 in human MV4-11 cells assessed as degradation of BRD4 incubated for 4 hrs by immunoblot analysis; assay type: cell-based
[19] = target: Protein cereblon/Bromodomain-containing protein 2 (Homo sapiens) (UniProt P25440+Q96SW2); test: PROTAC activity at CRBN/BRD2 in human MV4-11 cells assessed as degradation of BRD2 incubated for 4 hrs by immunoblot analysis relative to control; assay type: cell-based
[20] = target: Protein cereblon/Bromodomain-containing protein 3 (Homo sapiens) (UniProt Q15059+Q96SW2); test: PROTAC activity at CRBN/BRD3 in human MV4-11 cells assessed as degradation of BRD3 incubated for 4 hrs by immunoblot analysis relative to control; assay type: cell-based
MV4-11 [21] = test: Downregulation of c-Myc level in human MV4-11 cells measured after 4 hrs by immunoblot analysis; assay type: functional, cell-based
MV4-11 [22] = test: Upregulation of p53 level in human MV4-11 cells measured after 4 hrs by immunoblot analysis; assay type: functional, cell-based
[23] = target: Protein cereblon (Homo sapiens) (UniProt Q96SW2); test: Binding affinity to CRBN (unknown origin)
[24] = Chemical stability in human MV4-11 cell culture media at 400 uM measured upto 72 hrs by UPLC analysis; assay type: physicochemical
[25] = Chemical stability in human HD-MB03 cell culture media at 400 uM measured upto 72 hrs by UPLC analysis; assay type: physicochemical
[26] = Effect on BRD3 level in human MV4-11 cells assessed as fold change at 100 nM measured after 4 hrs; assay type: functional
[27] = Effect on BRD4 level in human MV4-11 cells assessed as fold change at 100 nM measured after 4 hrs; assay type: functional
[28] = Effect on BRD2 level in human MV4-11 cells assessed as fold change at 100 nM measured after 4 hrs; assay type: functional
[29] = Effect on MYC level in human MV4-11 cells assessed as fold change at 100 nM measured after 4 hrs; assay type: functional
[30] = Effect on FYTTD1 level in human MV4-11 cells assessed as fold change at 100 nM measured after 4 hrs; assay type: functional
[31] = Effect on CCNF level in human MV4-11 cells assessed as fold change at 100 nM measured after 4 hrs; assay type: functional
[32] = Effect on CDC42EP3 level in human MV4-11 cells assessed as fold change at 100 nM measured after 4 hrs; assay type: functional
[33] = Effect on MCL1 level in human MV4-11 cells assessed as fold change at 100 nM measured after 4 hrs; assay type: functional
[34] = Effect on PLAU level in human MV4-11 cells assessed as fold change at 100 nM measured after 4 hrs; assay type: functional
[35] = Effect on ZFP36L2 level in human MV4-11 cells assessed as fold change at 100 nM measured after 4 hrs; assay type: functional
[36] = Effect on FGL2 level in human MV4-11 cells assessed as fold change at 100 nM measured after 4 hrs; assay type: functional
[37] = Effect on NSA2 level in human MV4-11 cells assessed as fold change at 100 nM measured after 4 hrs; assay type: functional
[38] = Effect on CCND3 level in human MV4-11 cells assessed as fold change at 100 nM measured after 4 hrs; assay type: functional
[39] = Effect on AURKA level in human MV4-11 cells assessed as fold change at 100 nM measured after 4 hrs; assay type: functional
[40] = Effect on NOP53 level in human MV4-11 cells assessed as fold change at 100 nM measured after 4 hrs; assay type: functional
[41] = Effect on PLK1 level in human MV4-11 cells assessed as fold change at 100 nM measured after 4 hrs; assay type: functional
[42] = Effect on RNF166 level in human MV4-11 cells assessed as fold change at 100 nM measured after 4 hrs; assay type: functional
[43] = Effect on ZBTB21 level in human MV4-11 cells assessed as fold change at 100 nM measured after 4 hrs; assay type: functional
[44] = Effect on TP53 level in human MV4-11 cells assessed as fold change at 100 nM measured after 4 hrs; assay type: functional
[45] = Permeability in MDCK-II cells incubated for 1 hr by UPLC/MS/UV analysis; assay type: ADME, cell-based, Canis lupus familiaris; settings: dog, read-out: permeability
[46] = Stability in mouse plasma assessed as half life by UPLC-MS/MS analysis; assay type: ADME, cell-free
[47] = AUC last in female CD1 mouse at 10 mg/kg, po measured upto 24 hrs by LC-MS/MS analysis; assay type: ADME, organism-based; settings: in vivo

Ratio [1]: 140
half-life [2]: 252 min
half-life [3]: 252 min
SMILES: Cc1sc2c(c1C)C(c1ccc(Cl)cc1)=N[C@@H](CC(=O)NCCCCNC(=O)COc1cccc3c1C(=O)N(C1CCC(=O)NC1=O)C3=O)c1nnc(C)n1-2 (some centres undefined)

DC50 [4]: 0.19 nM
Emax [5]: 96.9%
Activity [6]: 0.292 fRLU/hr
solubility kinetic [8]: 48.4 µM (≈ 36.5 µg/mL)
half-life [9]: 78 min
clearance [12]: 8.85 mL/min/kg
half-life [13]: 204 min
AUC at 24 h [14]: 5540 ng·h/mL
Vd [15]: 0.85 L/kg
Cmax [16]: 2440 ng/mL
bioavailability [17]: 45%
DC50 [18]: 0.127 nM
Activity [19]: > 90%
Activity [20]: > 90%
Activity [23]: Active
Stability [24]: Stable
Stability [25]: Stable
Papp at 1 h [45]: 1.7 ×10⁻⁶ cm/s
half-life [46]: 438 min
AUC(0-t) at 24 h [47]: 8060 ng·h/mL
SMILES: Cc1sc2c(c1C)C(c1ccc(Cl)cc1)=N[C@@H](CC(=O)N1CCC(CN3CCN(c4ccc(C5CCC(=O)NC5=O)cc4)CC3)CC1)c1nnc(C)n1-2 (some centres undefined)
IC50 (MV4-11 [7]): 0.12 nM
IC50 (HD-MB03): 0.92 nM
Activity [10]: Active
Activity (HEK293): Non-toxic
AUC [11]: 281000
Activity (MV4-11 [21]): Active
Activity (MV4-11 [22]): Active
fold change (FC) [26]: -3.85
fold change (FC) [27]: -3.85
fold change (FC) [28]: -3.52
fold change (FC) [29]: -2.05
fold change (FC) [30]: -1.67
fold change (FC) [31]: -1.13
fold change (FC) [32]: -1.38
fold change (FC) [33]: -1.21
fold change (FC) [34]: -1.2
fold change (FC) [35]: -1.18
fold change (FC) [36]: -1.16
fold change (FC) [37]: -1.05
fold change (FC) [38]: -0.99
fold change (FC) [39]: -0.97
fold change (FC) [40]: -0.91
fold change (FC) [41]: -0.81
fold change (FC) [42]: -0.12
fold change (FC) [43]: -0.15
fold change (FC) [44]: 1.92
